From PubChem BioAssay (NCI)
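Briefly, cells in 96-well plates were exposed to five compound concentrations for 48 h, and endpoints were estimated by linear interpolation. The concentration for full growth arrest is given as TGI.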

Legend:
Assay in all cases: NCI tumour cell line growth inhibition, 48 h
786-0 renal = test system: 786-0 renal
A498 renal = test system: A498 renal
A549 NSCLC = test system: A549 NSCLC
ACHN renal = test system: ACHN renal
CAKI-1 renal = test system: CAKI-1 renal
CCRF-CEM leukemia = test system: CCRF-CEM leukemia
COLO 205 colon = test system: COLO 205 colon
DLD-1 colon = test system: DLD-1 colon
DMS 114 small cell lung = test system: DMS 114 small cell lung
DMS 273 small cell lung = test system: DMS 273 small cell lung
EKVX NSCLC = test system: EKVX NSCLC
HCC-2998 colon = test system: HCC-2998 colon
HCT-116 colon = test system: HCT-116 colon
HCT-15 colon = test system: HCT-15 colon
HL-60(TB) leukemia = test system: HL-60(TB) leukemia
HOP-18 NSCLC = test system: HOP-18 NSCLC
HOP-62 NSCLC = test system: HOP-62 NSCLC
HOP-92 NSCLC = test system: HOP-92 NSCLC
HT29 colon = test system: HT29 colon
IGROV1 ovarian = test system: IGROV1 ovarian
K-562 leukemia = test system: K-562 leukemia
KM12 colon = test system: KM12 colon
KM20L2 colon = test system: KM20L2 colon
LOX IMVI melanoma = test system: LOX IMVI melanoma
LXFL 529 NSCLC = test system: LXFL 529 NSCLC
M14 melanoma = test system: M14 melanoma
M19-MEL melanoma = test system: M19-MEL melanoma
MALME-3M melanoma = test system: MALME-3M melanoma
MOLT-4 leukemia = test system: MOLT-4 leukemia
NCI-H226 lung = test system: NCI-H226 lung
NCI-H23 lung = test system: NCI-H23 lung
NCI-H460 lung = test system: NCI-H460 lung
NCI-H522 lung = test system: NCI-H522 lung
OVCAR-3 ovarian = test system: OVCAR-3 ovarian
OVCAR-4 ovarian = test system: OVCAR-4 ovarian
OVCAR-5 ovarian = test system: OVCAR-5 ovarian
OVCAR-8 ovarian = test system: OVCAR-8 ovarian
RXF 393 renal = test system: RXF 393 renal
RXF-631 renal = test system: RXF-631 renal
SF-268 CNS = test system: SF-268 CNS
SF-295 CNS = test system: SF-295 CNS
SF-539 CNS = test system: SF-539 CNS
SK-MEL-2 melanoma = test system: SK-MEL-2 melanoma
SK-MEL-28 melanoma = test system: SK-MEL-28 melanoma
SK-MEL-5 melanoma = test system: SK-MEL-5 melanoma
SK-OV-3 ovarian = test system: SK-OV-3 ovarian
SN12C renal = test system: SN12C renal
SNB-19 CNS = test system: SNB-19 CNS
SNB-75 CNS = test system: SNB-75 CNS
SNB-78 CNS = test system: SNB-78 CNS
SR leukemia = test system: SR leukemia
SW-620 colon = test system: SW-620 colon
TK-10 renal = test system: TK-10 renal
U251 CNS = test system: U251 CNS
UACC-257 melanoma = test system: UACC-257 melanoma
UACC-62 melanoma = test system: UACC-62 melanoma
UO-31 renal = test system: UO-31 renal
XF 498 CNS = test system: XF 498 CNS
BT-549 breast = test system: BT-549 breast
DU-145 prostate = test system: DU-145 prostate
MCF7 breast = test system: MCF7 breast
MDA-MB-231 breast = test system: MDA-MB-231 breast
MDA-MB-435 = test system: MDA-MB-435
MDA-N = test system: MDA-N
PC-3 prostate = test system: PC-3 prostate
RPMI-8226 leukemia = test system: RPMI-8226 leukemia
T-47D breast = test system: T-47D breast

SMILES: CCOC(=O)C1=C(NC(C)(C)C)OC/C1=N\NC(=O)Cc1ccccc1
- TGI (786-0 renal): > 100 µM
- TGI (A498 renal): > 100 µM
- TGI (A549 NSCLC): > 100 µM
- TGI (ACHN renal): > 100 µM
- TGI (CAKI-1 renal): > 100 µM
- TGI (CCRF-CEM leukemia): > 100 µM
- TGI (COLO 205 colon): > 100 µM
- TGI (DLD-1 colon): > 100 µM
- TGI (DMS 114 small cell lung): > 100 µM
- TGI (DMS 273 small cell lung): > 100 µM
- TGI (EKVX NSCLC): > 100 µM
- TGI (HCC-2998 colon): > 100 µM
- TGI (HCT-116 colon): > 100 µM
- TGI (HCT-15 colon): > 100 µM
- TGI (HL-60(TB) leukemia): > 100 µM
- TGI (HOP-18 NSCLC): > 100 µM
- TGI (HOP-62 NSCLC): > 100 µM
- TGI (HOP-92 NSCLC): > 100 µM
- TGI (HT29 colon): > 100 µM
- TGI (IGROV1 ovarian): > 100 µM
- TGI (K-562 leukemia): > 100 µM
- TGI (KM12 colon): > 100 µM
- TGI (KM20L2 colon): > 100 µM
- TGI (LOX IMVI melanoma): > 100 µM
- TGI (LXFL 529 NSCLC): > 100 µM
- TGI (M14 melanoma): > 100 µM
- TGI (M19-MEL melanoma): > 100 µM
- TGI (MALME-3M melanoma): > 100 µM
- TGI (MOLT-4 leukemia): > 100 µM
- TGI (NCI-H226 lung): > 100 µM
- TGI (NCI-H23 lung): > 100 µM
- TGI (NCI-H460 lung): > 100 µM
- TGI (NCI-H522 lung): > 100 µM
- TGI (OVCAR-3 ovarian): > 100 µM
- TGI (OVCAR-4 ovarian): > 100 µM
- TGI (OVCAR-5 ovarian): > 100 µM
- TGI (OVCAR-8 ovarian): > 100 µM
- TGI (RXF 393 renal): > 100 µM
- TGI (RXF-631 renal): > 100 µM
- TGI (SF-268 CNS): > 100 µM
- TGI (SF-295 CNS): > 100 µM
- TGI (SF-539 CNS): > 100 µM
- TGI (SK-MEL-2 melanoma): > 100 µM
- TGI (SK-MEL-28 melanoma): > 100 µM
- TGI (SK-MEL-5 melanoma): > 100 µM
- TGI (SK-OV-3 ovarian): > 100 µM
- TGI (SN12C renal): > 100 µM
- TGI (SNB-19 CNS): > 100 µM
- TGI (SNB-75 CNS): > 100 µM
- TGI (SNB-78 CNS): > 100 µM
- TGI (SR leukemia): > 100 µM
- TGI (SW-620 colon): > 100 µM
- TGI (TK-10 renal): > 100 µM
- TGI (U251 CNS): > 100 µM
- TGI (UACC-257 melanoma): > 100 µM
- TGI (UACC-62 melanoma): > 100 µM
- TGI (UO-31 renal): > 100 µM
- TGI (XF 498 CNS): > 100 µM

SMILES: Nc1nc(-c2ccccc2)c(Cl)c(-c2cc(Cl)ccc2O)n1
- TGI (786-0 renal): 57.8 µM
- TGI (A498 renal): > 76.5 µM
- TGI (A549 NSCLC): 71 µM
- TGI (ACHN renal): 21.5 µM
- TGI (BT-549 breast): > 100 µM
- TGI (CAKI-1 renal): 47.2 µM
- TGI (CCRF-CEM leukemia): > 100 µM
- TGI (COLO 205 colon): > 100 µM
- TGI (DLD-1 colon): > 100 µM
- TGI (DMS 114 small cell lung): 66.6 µM
- TGI (DMS 273 small cell lung): 90.9 µM
- TGI (DU-145 prostate): > 100 µM
- TGI (EKVX NSCLC): > 100 µM
- TGI (HCC-2998 colon): > 100 µM
- TGI (HCT-116 colon): 27.1 µM
- TGI (HCT-15 colon): > 100 µM
- TGI (HL-60(TB) leukemia): > 100 µM
- TGI (HOP-18 NSCLC): > 94.3 µM
- TGI (HOP-62 NSCLC): 20.1 µM
- TGI (HOP-92 NSCLC): > 97.3 µM
- TGI (HT29 colon): > 100 µM
- TGI (IGROV1 ovarian): 54.7 µM
- TGI (K-562 leukemia): > 46.4 µM
- TGI (KM12 colon): > 87.9 µM
- TGI (KM20L2 colon): > 100 µM
- TGI (LOX IMVI melanoma): > 59.2 µM
- TGI (LXFL 529 NSCLC): > 73.1 µM
- TGI (M14 melanoma): > 100 µM
- TGI (M19-MEL melanoma): > 100 µM
- TGI (MALME-3M melanoma): > 100 µM
- TGI (MCF7 breast): > 100 µM
- TGI (MDA-MB-231 breast): > 100 µM
- TGI (MDA-MB-435): > 100 µM
- TGI (MDA-N): > 100 µM
- TGI (MOLT-4 leukemia): > 100 µM
- TGI (NCI-H226 lung): 61.3 µM
- TGI (NCI-H23 lung): 67.2 µM
- TGI (NCI-H460 lung): 99.3 µM
- TGI (NCI-H522 lung): > 62.9 µM
- TGI (OVCAR-3 ovarian): 24.2 µM
- TGI (OVCAR-4 ovarian): 66.4 µM
- TGI (OVCAR-5 ovarian): > 100 µM
- TGI (OVCAR-8 ovarian): 33.8 µM
- TGI (PC-3 prostate): > 100 µM
- TGI (RPMI-8226 leukemia): > 100 µM
- TGI (RXF 393 renal): 41.9 µM
- TGI (RXF-631 renal): > 100 µM
- TGI (SF-268 CNS): > 83.1 µM
- TGI (SF-295 CNS): > 94.3 µM
- TGI (SF-539 CNS): 66.5 µM
- TGI (SK-MEL-2 melanoma): 99.8 µM
- TGI (SK-MEL-28 melanoma): > 100 µM
- TGI (SK-MEL-5 melanoma): 59.6 µM
- TGI (SK-OV-3 ovarian): 49.3 µM
- TGI (SN12C renal): 87.5 µM
- TGI (SNB-19 CNS): 47 µM
- TGI (SNB-75 CNS): 43.9 µM
- TGI (SNB-78 CNS): > 82.7 µM
- TGI (SR leukemia): > 100 µM
- TGI (SW-620 colon): > 100 µM
- TGI (T-47D breast): 36.4 µM
- TGI (TK-10 renal): 42.6 µM
- TGI (U251 CNS): 45.1 µM
- TGI (UACC-257 melanoma): > 100 µM
- TGI (UACC-62 melanoma): > 100 µM
- TGI (UO-31 renal): 46.6 µM
- TGI (XF 498 CNS): 47.5 µM
